Reference: US20210002650A1, “COMPOSITIONS AND METHODS FOR TREATING ALZHEIMER'S DISEASE” (University of Virginia Patent Foundation, priority 2019, published 2021)
Structures can show the parent of a compound that is named as a salt.

Legend:
[1] = tested on: primary mouse cortical neurons; experiment: AβO-induced neuronal cell cycle re-entry (CCR), cyclin D1/NeuN/MAP2 triple immunofluorescence; type: cell-based; design: induction of CCR in primary neuron cultures: dose or concentration left out as unconfirmed
Protocol: Cortical neuron cultures derived from E17/18 wild type C57/BL6 mouse embryos prepared and maintained as described previously. Cultures were maintained for 16-18 days prior to experimental manipulations.
20 μl aliquots were stored at −80° C. until ready to use. To prepare oligomers, an aliquot was dried in a speed vac for 3 hours, solubilized in 1 mM in dimethyl sulfoxide (Sigma, D2650-5X5ML), placed in a water bath sonicator for 5 minutes, and then supplemented with Neurobasal medium (GIBCO/Life Technologies, 21103-049) to yield a final peptide concentration of 100 μM. The solution was then placed on an orbiting rocker at 4° C. for 48 hours, after which it was centrifuged at 14,000×g in a tabletop microcentrifuge for 15 minutes to pellet large aggregates.
All steps were performed at room temperature unless indicated otherwise. Primary mouse cortical neurons grown on #1.5 thickness, 12 mm round glass coverslips were rinsed once with ice-cold phosphate buffered saline (PBS), and then were fixed in 4% paraformaldehyde in PBS for 12 minutes. Following fixation, the cells were rinsed 3 times for 5 minutes each with ice cold PBS, permeabilized for 15 minutes with PBS containing 0.2% Triton X-100 (Fisher, 9002-93-1), and rinsed 3 times for 5 minutes each with PBS. Next, the cells were blocked with PBST (PBS supplemented with 2% bovine serum albumin (BSA; Roche, 03116956001); and 0.1% Tween 20 (Fisher, 9005-64-5) for 1 hour, after which they were labeled overnight with primary antibodies followed by secondary antibodies for 1 hour. Antibodies were diluted into 2% BSA in PBS, and after each antibody incubation step the cells were rinsed 3 times for 5 minutes each with PBS. Finally, the coverslips were rinsed with ultrapure water and mounted onto slides using Fluormount-G (Southern Biotech, 0100-01) containing 1% 1,4-diazabicyclo[2.2.2]octane (Sigma, D27802-25MG), an anti-quenching agent.
(§1) Cultured neurons and brain sections were imaged on either of two microscopes: 1) Nikon Eclipse Ti equipped with a Yokogawa CSU-X1 spinning disk head, 20×0.75 NA CFI Plan Apo, 40×1.3 NA CFI S Fluor and 60×1.4 NA Plan Apo objectives; 405 nm, 488 nm, 561 nm and 640 nm lasers; and a Hamamatsu Flash 4.0 scientific CMOS camera; or 2) EVOS FL imaging system (Invitrogen). Micrographs were captured using either Nikon Elements or EVOS software. CCR-positive cells were counted using the ImageJ cell counter plugin for brain sections (available at an NIH website), and were counted manually using the EVOS microscope for primary neuron cultures. For cultured neurons (FIGS. 1-4, S5 and S2), 4 biological replicates of >300 neurons were counted per condition per experiment.
To test the hypothesis that neuronal CCR is calcium-dependent we first treated primary mouse cortical neurons with BAPTA-AM, a cell-permeant chelator of intracellular calcium, beginning 30 minutes prior to addition of AβOs to the cultures.
Accordingly, primary neuron cultures were treated with MK-801, an NMDAR inhibitor that blocks calcium entry through the channel pore, beginning 30 minutes before AβOs were added. […] Otherwise identical experiments were performed using 6-cyano-7-nitroquinoxaline-2,3-dione (CNQX) to block plasma membrane AMPA receptors (FIG. 7), 2-aminoethoxydiphenyl borate (2-ABP) to block ER-associated IP3 receptors and TRP channels (FIG. 8), or dantrolene to inhibit ER-associated ryanodine receptors (FIG. 8).

CaMKII = experiment: phospho-activated versus total CaMKII by western blotting of AβO-treated cortical neurons; type: cell-based, mouse; conditions: 10 μM MK-801, 30 minute pre-treatment; 15 minutes after AβO addition
Protocol: Samples were resolved on 12% SDS polyacrylamide gels, then transferred at 100 V for 1.75 hours onto 0.22 μm pore size nitrocellulose membranes using a Bio-Rad Mini-PROTEAN Tetra Electrophoresis Cell. Following transfer, blots were rinsed once in tris-buffered saline (TBS), blocked for 30-60 minutes in blocking buffer (LI-COR, 927-50000), sequentially incubated in primary antibodies overnight at 4° C. in antibody buffer (1:1 mix of blocking buffer, and TBST: TBS+0.1% Tween-20), then LI-COR infrared-labeled secondary antibodies for 30 minutes. Blots were rinsed 3 times for 5 minutes each using TBST after the primary antibody or TBS after the secondary antibody. Finally, membranes were scanned using a LI-COR Odyssey imaging station.
CaMKII is of particular interest, as it can be activated via calcium influx through NMDAR. We thus tested the hypothesis that AβO-mediated calcium influx through NMDAR activates CaMKII as a mediator of CCR. Again, we treated primary neurons with AβOs with or without a 30 minute MK-801 pre-treatment, and collected the cells at various time points from 0-2 hours after AβO stimulation for western blotting with antibodies to phospho-activated and total CaMKII. […] The AβO-mediated activation of CaMKII necessary for CCR [19] is therefore dependent upon calcium influx through NMDAR.

Tg2576 AD model mice = experiment: neuronal CCR in vivo, cyclin D1-positive cortical neurons in brain sections after memantine in drinking water; design: species or system mouse; conditions: memantine ~30 mg/kg/day in drinking water from 3 weeks until 2 months of age
Protocol: Brain tissue sections were obtained from mice that were transcardially perfused first with 10 ml of phosphate buffer (PB; 0.1 M sodium phosphate, pH 7.6), followed by 10 ml of 4% paraformaldehyde in PB at a flow rate of 1.5 ml/minute. Next, brains were removed and placed in 4% paraformaldehyde in PB for 24 hours, washed 3 times in PBS, incubated in 30% sucrose overnight, and flash frozen using dry ice. Frozen tissue was stored at −80° C. until ready for sectioning to 40 μm thickness on a Microm HM 505 E cryostat. […]
as §1, with “Micrographs were captured using either Nikon Elements or EVOS software.” left out, “experiment. […]” for “experiment.”

[2] = cited from earlier work
[3] = 10 μM, 30 minute pre-treatment, 16-18 hours AβOs

NCCOB(c1ccccc1)c1ccccc1 [2-ABP, 2-aminoethoxydiphenyl borate]
AβO-induced neuronal CCR (cyclin D1-positive neurons) ([1]; 50 μM 2-APB to block IP3 receptors, 18 hours AβOs): none of those inhibitors blocked CCR

CC(=O)OCOC(=O)CN(CC(=O)OCOC(C)=O)c1ccccc1OCCOc1ccccc1N(CC(=O)OCOC(C)=O)CC(=O)OCOC(C)=O [BAPTA-AM, 1,2-Bis(2-aminophenoxy)ethane-N,N,N′,N′-tetraacetic acid tetrakis(acetoxymethyl ester)]
AβO-induced neuronal CCR (cyclin D1-positive neurons) [1, 3]: prevented

N#Cc1cc2c(cc1[N+](=O)[O-])=NC(=O)C(=O)N=2 [CNQX, 6-cyano-7-nitroquinoxaline-2,3-dione]
AβO-induced neuronal CCR (cyclin D1-positive neurons) [1, 3]: none of those inhibitors blocked CCR

C[C@]12N[C@H](Cc3ccccc31)c1ccccc12 [MK-801, (1S,9R)-1-methyl-16-azatetracyclo[7.6.1.02,7.010,15]hexadeca-2,4,6,10,12,14-hexaene]
AβO-induced neuronal CCR (cyclin D1-positive neurons) [1, 3]: blocked the induction of CCR | AβO-mediated transient activation of CaMKII (phosphorylated relative to total CaMKII) (CaMKII): activation was prevented

CN[C@H](CC(=O)O)C(=O)O [NMDA]
induction of CCR in primary neuron cultures ([1]; 30 second shock of NMDA, no AβOs): induces CCR

O=C1CN(/N=C/c2ccc(-c3ccc([N+](=O)[O-])cc3)o2)C(O)=N1 [dantrolene]
AβO-induced neuronal CCR (cyclin D1-positive neurons) ([1]; 20 μM dantrolene to block ryanodine receptors, 18 hours AβOs): none of those inhibitors blocked CCR

CC12CC3CC(C)(C1)CC(N)(C3)C2 [memantine, 1-amino-3,5-dimethyladamantane hydrochloride]
AβO-induced neuronal CCR (cyclin D1-positive neurons) [1, 3]: prevented AβOs from inducing neuronal CCR | neuronal CCR along cortical regions (cyclin D1 immunoreactivity) (Tg2576 AD model mice; Tg2576 mice (untreated 8.8%)): reduced to WT levels | neuronal CCR along cortical regions (cyclin D1 immunoreactivity) (Tg2576 AD model mice; WT mice): 1.6% | solubility in water [2]: soluble in water
